Laboratory results reported in paper PMC6891695, “Evaluation of Antifouling Potential and Ecotoxicity of Secondary Metabolites Derived from Red Algae of the Genus Laurencia” (Marine Drugs, 2019).

How the values were obtained:
HEK293 cell line [1] = assay: HEK293 neutral red assay (lysosome activity); type: cell-based, human; conditions: for EC50: Homo sapiens, HEK293, Neutral red assay, 48 h incubation; for effect on lysosomal activity (in words): HEK293
Procedure: (§1) The RTL-W1 cell line, a non-transformed rainbow trout liver cell line that has already been used in environmental toxicity assays, was established from the normal liver of an adult rainbow trout by proteolytic dissociation of liver fragments. RTL-W1 cells were cultured in 75 cm^2 culture flasks (Orange Scientific, Braine l’Alleud, Belgium) at 20 °C in Leibovitz’s (L-15, Sigma-Aldrich, St. Louis, MO, USA) medium supplemented with 5% fetal bovine serum (FBS) and 1% L-glutamine in CO2-free incubator. For the cytotoxicity assays of the selected secondary metabolites, cells were seeded at 3 × 10^4 cells/well density in a 96-well tissue culture plate (Orange Scientific Braine l’Alleud, Belgium) in 100 μL culture medium/well for 2 days before the assays. Three different cytotoxicity protocols were used: 1) The alamar blue/resazurin fluorometric/colorimetric cell viability assay to assess the metabolic capacity and mitochondrial function; 2) the crystal violet cell viability assay for indirect quantification of cell death; and 3) the neutral red cell proliferation assay for lysosomal activity. Two days after seeding the cells, cultures were incubated with various concentrations of selected secondary metabolites at 20 °C for 48 h before cell viability was assessed. […] For the alamar blue/resazurin fluorometric/colorimetric cell viability assay, 100 μL of 3 μg/100 μL Resazurin sodium salt (Sigma-Aldrich, St. Louis, MO, USA) in incubation medium was added on each well and incubated under sterile conditions at 20 °C for 4 h. For the crystal violet cell viability assay, after 48 h of incubation with each secondary metabolite, the culture medium was aspirated and cells were washed twice with sterile dd. H2O. The final wash was aspirated and 50 μL of 0.5% (w/v) crystal violet staining solution (20% methanol in dd. H2O) was added to each well followed by incubation for 20 min at room temperature on a bench rocker with a frequency of 20 oscillations per minute. The staining solution was then aspirated and the plate was washed four times with sterile dd. H2O and left to air-dry without its lid for 3 h at room temperature. Next, 200 μL of methanol was added to each well, and the plate was incubated with its lid on for 20 min at room temperature on a bench rocker with a frequency of 20 oscillations per minute. For the neutral red cell proliferation assay, after 48 h of incubation with each secondary metabolite, the culture medium was aspirated and cells were washed twice with phosphate-buffered saline (PBS, pH 7.4). Cells were then incubated with 100 μL of a 40 μg/mL neutral red staining solution in culture medium at 20 °C for 4 h followed by two washes with 150 μL of PBS. Then cells were incubated with 100 μL neutral red destain solution (50% ethanol, 49% dd. H2O, 1% glacial acetic acid) for 10 min on a bench rocker with a frequency of 80 oscillations per minute. Absorbance was read at 570 nm for alamar blue/resazurin and crystal violet and at 540 nm for neutral red using a Tecan infinite M200 Pro microplate reader. For each assay and each secondary metabolite, a minimum of four independent dose–response experiments with three replicates each were carried out. Calculations were carried out using detailed formulas (AbCam, Cambridge, UK, and results were analyzed with GraphPad Prism v.6.
(§2) HEK293 cells, a human embryotic kidney cell line, were obtained from ATCC (ATCC® CRL-1573™) at passage 37 of the original clone and used at passage 38. Cells were cultured routinely in 75 cm^2 culture flasks (Orange Scientific, Braine l’Alleud, Belgium) at 37 °C (5% CO2) in DMEM cell culture medium (Biosera) supplemented with 10% FBS (Sigma-Aldrich, St. Louis, MO, USA) and 1% L-glutamine. All assay conditions and protocols were identical to those described above for RTL-W1 cells with the exception that incubations were carried out at 37 °C. […]

RTL-W1 cell line [2] = assay: RTL-W1 alamar blue/resazurin assay (mitochondria function); type: cell-based, rainbow trout; conditions: for EC50: Oncorhynchus mykiss, RTL-W1, Alamar blue/Resazurin assay, 48 h incubation; for effect on general metabolism and mitochondrial activity (in words): RTL-W1
Procedure: as §1
(§3) For EC50 or IC50 (the concentration that results in 50% stimulation or inhibition relative to the control) calculations in GraphPad Prism v.6, all data were fitted to the curve according to the following models for normalized response: Y = 100/(1 + 10^((X − LogIC50))) or Y = 100/(1 + 10^((LogEC50 − X))) depending on the trend of the curve.

RTL-W1 cell line [3] = assay: RTL-W1 crystal violet assay (cell viability); type: cell-based, rainbow trout; conditions: for EC50: Oncorhynchus mykiss, RTL-W1, Crystal violet assay, 48 h incubation; for crystal violet assay EC50 (in words): RTL-W1
Procedure: as §1, §3

HEK293 cell line [4] = assay: HEK293 alamar blue/resazurin assay (mitochondria function); type: cell-based, human; conditions: for EC50: Homo sapiens, HEK293, Alamar blue/Resazurin assay, 48 h incubation; for effect on mitochondrial function and metabolism (in words): HEK293
Procedure: as §1, §2

A. amphitrite cyprids = assay: Substrate exploration analysis: SIPC deposition by cyprids (anti-SIPC Western blot on wells); type: in vivo, Amphibalanus amphitrite; conditions: for effect on deposition of SIPC protein on the surface of the bioassay plates: concentrations at the EC50 values, p > 0.05; for effect on deposition of SIPC protein on the surface of the bioassay plates / effect on adjusted integrated density of anti-SIPC immunoreactive signals: 24 h; for effect on adjusted integrated density of anti-SIPC immunoreactive signals: indicated concentrations, unpaired two-tailed t-test with Welch's correction
Procedure: To test the substrate exploratory behaviour of A. amphitrite cyprids in the presence of selected metabolites, settlement bioassays were conducted by adding 10 cyprids into individual wells of a 24-well polystyrene sterile microplate (Orange Scientific, Braine l’Alleud, Belgium) containing 2 mL of ASW (25‰). These experiments were repeated twice with four replicates per experiment. Plates were covered and sealed with Parafilm® to avoid evaporation and incubated at 25 °C away from any light source for 24 h. Then, the 2 mL of ASW was aspirated from each well and all settled and non-settled cyprids were counted and removed. Wells were then blocked by incubation with 5% BSA in TBST (25 mM Tris-HCl, pH 7.5, 150 mM NaCl, 0.1% Tween 20) for 1 h at room temperature. Wells were then incubated for 1 h at room temperature with the mouse anti-SIPC monoclonal antibody at 1:100 dilution of the cloned cell line culture supernatant in TBST with 5% BSA, washed with TBST (3 × 5 min) and incubated with an HRP-conjugated anti-mouse antibody (1:1000, Cell Signaling Technology, Danvers, MA, USA) for 1 h at room temperature. Wells were then washed with TBST (3 × 5 min) and immunostaining was detected using the 20 × LumiGLO® chemiluminescence kit (Cell Signaling Technology, Danvers, MA, USA) in a Bio-Rad ChemiDoc XRS + Gel Photo Documentation System. To measure the relative intensity of immunoreactive spots on this format of Western blots, images were analyzed with ImageJ 1.52k (NIH, Bethesda, MD, USA), and the adjusted integrated density of the signals was calculated using the formula: Adjusted integrated density (IntDen) = IntDen of experimental region of interest (ROI)—(mean of background ROI × area of experimental ROI). Data were exported and statistically analyzed with GraphPad Prism v.6 using unpaired, two-tailed t-tests at p = 0.05, with Welch’s correction.

Row | SMILES | EC50 (HEK293 cell line [1]) | EC50 (RTL-W1 cell line [2]) | EC50 (RTL-W1 cell line [3]) | crystal violet assay EC50 (in words) (RTL-W1 cell line [3]) | EC50 (HEK293 cell line [4]) | effect on deposition of SIPC by the cyprids relative to control (ASW) (A. amphitrite cyprids; 10 μM) | effect on deposition of SIPC protein on the surface of the bioassay plates (A. amphitrite cyprids) | effect on adjusted integrated density of anti-SIPC immunoreactive signals (A. amphitrite cyprids) | effect on lysosomal activity (in words) (HEK293 cell line [1]) | effect on general metabolism and mitochondrial activity (in words) (RTL-W1 cell line [2]) | effect on mitochondrial function and metabolism (in words) (HEK293 cell line [4])
1 | CC(C)[C@@H]1CC=C[C@H]2[C@H]3[C@](C)(CC[C@]12CBr)[C@@H](Br)CC[C@@]3(C)O [Bromosphaerol, reference compound] | 340 µM | > 1000 µM | 0.575 µM | sub-micromolar | 57.6 µM | did not affect deposition of SIPC | no statistically significant effect | none of the two tested compounds (p > 0.05) affected |  |  | 
2 | CC1=C2CC[C@@](C)(Cl)[C@@H](Br)C[C@]2(C)[C@@H](C)[C@@H](Br)[C@@H]1O [Compound 9, perforenol] | > 1000 µM | > 1000 µM | 16 µM |  | 10.8 µM |  | no statistically significant effect | none of the two tested compounds (p > 0.05) affected | not affected | none of the three tested metabolites had an effect | 
3 | C=CC(C)(O)CC[C@@H]1C(=C)CC[C@@H](Br)[C@@]1(C)CCC1OC1(C)C (stereo partly shown) [Compound 18] | > 1000 µM | > 1000 µM | 0.456 µM | sub-micromolar | 0.225 µM |  |  |  | not affected | none of the three tested metabolites had an effect | very selective against mitochondrial function and metabolism
4 | C=C(C1CCC(C)(O)C(Br)C1)C1C(Br)C2C(CCC2(C)O)C1(C)C (stereo not shown) [Compound 19, neorogioldiol] | > 1000 µM | > 1000 µM | 12.8 µM |  | 0.062 µM |  |  |  | not affected | none of the three tested metabolites had an effect | very selective against mitochondrial function and metabolism
